One test has as its system TP53 signaling. Nature of the test: Nutlin-3a treatment after bleomycin injury in Sftpc-CreER; R26R-tdTomato mice, AGER immunostaining. The settings on record: uninjured (PBS) mice that received Nutlin-3a; 20 mg kg-1 d-1 intraperitoneal for ten days.
The target in another test is T1, Runx1 (Mus musculus, UniProt Q03347).
T1 construct: Lipofibroblasts were cultured in the presence of Ro 5-3335 and TGF-B for 48 hours; endogenous in cells; host or cells: primary lung lipofibroblasts (mouse, inferred) in culture
Nature of the test: Lipofibroblast culture with TGF-B induced myofibrogenesis, Runx1 pharmacologic inhibition. The test is classed as cell-based. The settings on record: lipofibroblasts cultured in the presence of Ro 5-3335 and TGF-B for 48 hours.

The structures appear in SMILES notation.

T1 sequence (Q03347 whole entry): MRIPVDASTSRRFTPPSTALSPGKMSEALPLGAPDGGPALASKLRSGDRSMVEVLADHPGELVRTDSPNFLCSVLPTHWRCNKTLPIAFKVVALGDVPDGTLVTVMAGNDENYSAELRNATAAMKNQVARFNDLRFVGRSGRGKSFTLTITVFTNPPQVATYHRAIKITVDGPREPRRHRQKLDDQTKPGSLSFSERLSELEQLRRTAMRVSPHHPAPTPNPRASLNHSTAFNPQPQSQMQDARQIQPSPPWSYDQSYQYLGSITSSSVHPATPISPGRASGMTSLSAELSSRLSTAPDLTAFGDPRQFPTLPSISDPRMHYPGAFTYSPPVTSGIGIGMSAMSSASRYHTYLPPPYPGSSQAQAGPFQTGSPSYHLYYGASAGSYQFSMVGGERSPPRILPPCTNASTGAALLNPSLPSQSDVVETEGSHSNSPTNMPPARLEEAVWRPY

Consider `COc1ccc(C2=N[C@@H](c3ccc(Cl)cc3)[C@@H](c3ccc(Cl)cc3)N2C(=O)N2CCNC(=O)C2)c(OC(C)C)c1` [Nutlin-3a], for which the “AGER+Sftpc-tdt+ cells in uninjured lungs” value in the test with TP53 signaling is given as “no AGER+Sftpc-tdt+ cells”.

On to `O=C1CN=C(c2ccc[nH]2)c2cc(Cl)ccc2N1` [Ro 5-3335], for which, on Runx1, the “PDGFRA expression and cell shape of lipofibroblasts” value is “maintained PDGFRA expression and their stellate shape”; the “aSMA expression and myofibrotic conversion” value is “virtually no aSMA expression and myofibrotic conversion”.
